Measured values reported in ChEMBL document CHEMBL3046333, “Synthesis and bioevaluation of novel analogues of justicidin A” (Med Chem Res, 2010).

What follows are compounds tested on HepG2 (assay: Cytotoxicity against Homo sapiens (human) HepG2 cells after 3 days by MTT assay). Settings: HepG2, 72 h.
Format: functional, cell-based

Row | SMILES | IC50
1 | COc1cc2c(OCCCBr)c3c(c(-c4ccc5c(c4)OCO5)c2cc1OC)C(=O)OC3 | 161 µM
2 | COc1cc2c(OCCCCCBr)c3c(c(-c4ccc5c(c4)OCO5)c2cc1OC)C(=O)OC3 | 207 µM
3 | COc1cc2c(O)c3c(c(-c4ccc5c(c4)OCO5)c2cc1OC)C(=O)OC3 [DIPHYLLIN] | > 500 µM
4 | COc1cc2c(OCCCCBr)c3c(c(-c4ccc5c(c4)OCO5)c2cc1OC)C(=O)OC3 | 155 µM
5 | COc1cc2c(OC)c3c(c(-c4ccc5c(c4)OCO5)c2cc1OC)C(=O)OC3 [JUSTICIDIN A] | 163 µM
6 | CCCCCOc1c2c(c(-c3ccc4c(c3)OCO4)c3cc(OC)c(OC)cc13)C(=O)OC2 | 291 µM
7 | CCCOc1c2c(c(-c3ccc4c(c3)OCO4)c3cc(OC)c(OC)cc13)C(=O)OC2 | 152 µM
8 | COc1cc([C@@H]2c3cc4c(cc3[C@@H](O[C@@H]3O[C@@H]5CO[C@@H](C)O[C@H]5[C@H](O)[C@H]3O)[C@H]3COC(=O)[C@H]23)OCO4)cc(OC)c1O [ETOPOSIDE] | 427 µM
9 | COc1cc2c(OCCCCCCBr)c3c(c(-c4ccc5c(c4)OCO5)c2cc1OC)C(=O)OC3 | 167 µM
10 | COc1cc2c(OCCBr)c3c(c(-c4ccc5c(c4)OCO5)c2cc1OC)C(=O)OC3 | 263 µM
11 | CCCCOc1c2c(c(-c3ccc4c(c3)OCO4)c3cc(OC)c(OC)cc13)C(=O)OC2 | 127 µM
12 | CCOc1c2c(c(-c3ccc4c(c3)OCO4)c3cc(OC)c(OC)cc13)C(=O)OC2 | 141 µM
